Patent publication US20080139612A1, “Chemical Compound” (ASTRAZENECA AB, priority 2006, published 2008)

Legend:
CCR5 = target: T1, CCR5 (Homo sapiens, UniProt P51681); assay: Displacement of radio-labelled CCR5 antagonist from Allo-T cell membranes (inhibition of MIP-1β binding); details: membranes of human allo-reactive T cells; 2 nM [3H] CCR5 antagonist; 2 hours at room temperature; read-out: IC50, concentration which displaced 50% of bound radio-labelled CCR5 antagonist
T1 construct: After 21 to 34 days culture, the membranes were prepared from the cells; endogenous in cells; host or cells: Allo-T cells (allo-reactive T cell line from human PBMCs), membrane preparation
T1 sequence (P51681 whole entry): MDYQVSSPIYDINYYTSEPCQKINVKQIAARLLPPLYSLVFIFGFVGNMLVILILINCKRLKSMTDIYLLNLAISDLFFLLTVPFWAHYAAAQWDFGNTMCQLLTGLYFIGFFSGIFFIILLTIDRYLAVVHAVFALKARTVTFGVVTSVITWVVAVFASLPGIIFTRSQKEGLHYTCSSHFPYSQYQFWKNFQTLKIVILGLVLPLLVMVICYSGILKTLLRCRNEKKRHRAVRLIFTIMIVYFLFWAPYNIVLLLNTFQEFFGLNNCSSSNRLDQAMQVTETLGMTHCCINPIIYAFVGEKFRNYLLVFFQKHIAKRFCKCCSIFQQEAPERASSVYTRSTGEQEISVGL
Protocol: The ability of the compound of the present invention to inhibit the binding of MIP-1β (CCL-4) was measured:
An allo-reactive T cell line was generated by exposure of human peripheral blood mononuclear cells (PBMCs) to L-DR4/B7 fibroblasts (immobilised with glutaraldehyde fixation and irradiation) and subsequent expansion with anti-CD3 and IL-2 for 14 days. The resultant Allo-T cells were frozen. When required, the cells were grown and re-challenged with irradiated HLA-DR4+ve PBMCs and expanded with anti-CD3 and IL-2. After 21 to 34 days culture, the membranes were prepared from the cells. These membranes were incubated in 96-well plates with 2 nM of the radio-labelled CCR5 antagonist [^3H]1-{(3R)-3-(3,5-difluorophenyl)-3-[4-(methylsulfonyl)phenyl]propyl}-4-(2-{[4-(methylsulfonyl)phenyl]sulfonyl}ethyl)piperidine and various concentrations of the compound of the invention for 2 hours at room temperature. The plates were then harvested onto GF/B filter plates (which had been pre-soaked soaked in 0.3% PEI containing 0.2% BSA for 10 min at 4° C.) using a Packard Unifilter harvester using 10 wash steps. The amount of [^3H]1-{(3R)-3-(3,5-difluorophenyl)-3-[4-(methylsulfonyl)phenyl]propyl}-4-(2-{[4-(methylsulfonyl)phenyl]sulfonyl}ethyl)piperidine retained on the filter plates was determined by scintillation counting. […]

[1] = tested on: T-cells, chemotaxis in response to MIP-1β (CCL-4); assay: Inhibition of chemotaxis of T-cells in response to MIP-1β (CCL-4); format: cell-based; details: human allo-reactive T cell line; 1 nM MIP-1β; 1 hour at 37° C.; read-out: IC50, concentration which inhibited 50% of the chemotactic response
Protocol: The ability of the compound of the present invention to inhibit the chemotaxis of T-cells in response to MIP-1β (CCL-4) was measured:
An allo-reactive T cell line was generated by exposure of human peripheral blood mononuclear cells (PBMCs) to L-DR4/B7 fibroblasts (immobilised with glutaraldehyde fixation and irradiation) and subsequent expansion with IL-2 and anti-CD3. When required, the cells were grown and re-challenged with irradiated HLA-DR4+ve PBMCs and expanded with anti-CD3 and IL-2. The cells were used between day 21 and 34. 1 nM of MIP-1β plus varying concentrations of the CCR5 antagonist [^3H]1-{(3R)-3-(3,5-difluorophenyl)-3-[4-(methylsulfonyl)phenyl]propyl}-4-(2-{[4-(methylsulfonyl)phenyl]sulfonyl}ethyl)piperidine were placed in assay buffer in the bottom of a 96-well Neuroprobe Chemo TX chemotaxis plate and cells that had been loaded with a fluorescent dye and pre-incubated with varying concentration of the CCR5 antagonist were pipetted onto the surface of a 5 micron pore size membrane according to the manufacturers specifications. After 1 hour of incubation with the compound of the invention at 37° C., the unmigrated cells were washed off the surface of the plate with PBS and the […] by reading on a 96-well fluorescent plate reader. […]

Compound	IC50 (CCR5) [nM]	IC50 [1] [nM]
Cc1nnc(C(C)(F)F)n1C1CCN([C@H](C)C[C@@H](c2cc(F)cc(F)c2)C2CCN(S(C)(=O)=O)CC2)CC1 (single isomer, unassigned)	3.4	2.1
Cc1nnc(C(F)(F)F)n1C1CCN(CC[C@@H](c2cc(F)cc(F)c2)C2CCN(S(C)(=O)=O)CC2)CC1 [Comparator Compound A, 1-{(3R)-3-(3,5-difluorophenyl)-3-[1-(methylsulfonyl)piperidin-4-yl]propyl}-4-[3-methyl-5-(trifluoromethyl)-4H-1,2,4-triazol-4-yl]piperidine]	39	68
